The record followed here is paper PMC5218480 (PLoS ONE, 2017).

In this assay the test system is MV-4-11 cells. Put plainly: Gene expression microarray analysis (Affymetrix PrimeView) and GSEA. As to conditions: ProbeSet 11721521_at; LIST B. In kind it is cell-based, human. Further details: RFU PODN (11730768_x_at) / Fold change /veh PODN (11730768_x_at) / RFU LINC00158 (11744669_a_at) / Fold change /veh LINC00158 (11744669_a_at) / RFU DUSP10 (11751237_a_at) / Fold change /veh DUSP10 (11751237_a_at) / RFU ID3 (11757404_x_at) / Fold change /veh ID3 (11757404_x_at) / RFU PLEKHG5 (11737974_s_at) / Fold change /veh PLEKHG5 (11737974_s_at) / RFU LRRC4B (11730491_at) / Fold change /veh LRRC4B (11730491_at) / RFU GIMAP4 (11747438_a_at) / Fold change /veh GIMAP4 (11747438_a_at) / RFU KRT8 (11758183_x_at) / Fold change /veh KRT8 (11758183_x_at) / RFU CNN1 (11734310_a_at) / Fold change /veh CNN1 (11734310_a_at) / RFU VPS37D (11726825_at) / Fold change /veh VPS37D (11726825_at) / RFU C10orf10 (11716522_x_at) / Fold change /veh C10orf10 (11716522_x_at) / RFU KIR2DL2 /// KIR2DL4 /// KIR2DL5A /// KIR2DL5B /// KIR2DS1 /// KIR2DS2 /// KIR2DS3 /// KIR2DS4 /// KIR3DL3 /// KIR3DL3 /// KIR3DS1 (11738374_at) / Fold change /veh KIR2DL2 /// KIR2DL4 /// KIR2DL5A /// KIR2DL5B /// KIR2DS1 /// KIR2DS2 /// KIR2DS3 /// KIR2DS4 /// KIR3DL3 /// KIR3DL3 /// KIR3DS1 (11738374_at) / RFU C1QL1 (11718748_at) / Fold change /veh C1QL1 (11718748_at) / RFU TMPRSS4 (11747572_a_at) / Fold change /veh TMPRSS4 (11747572_a_at) / RFU HAMP (11756126_x_at) / Fold change /veh HAMP (11756126_x_at) / RFU RNFT2 (11725882_a_at) / Fold change /veh RNFT2 (11725882_a_at) / RFU NR4A2 (11747474_a_at) / Fold change /veh NR4A2 (11747474_a_at) / RFU ABCC12 (11746883_a_at) / Fold change /veh ABCC12 (11746883_a_at) / RFU TMEM136 (11760407_x_at) / Fold change /veh TMEM136 (11760407_x_at) / RFU CLDN22 /// WWC2 (11732394_at) / Fold change /veh CLDN22 /// WWC2 (11732394_at) / RFU HLA-DPB1 (11760878_x_at) / Fold change /veh HLA-DPB1 (11760878_x_at) / RFU SPINT1 (11716480_a_at) / Fold change /veh SPINT1 (11716480_a_at) / RFU GAP43 (11754022_s_at) / Fold change /veh GAP43 (11754022_s_at) / RFU A4GNT (11735810_at) / Fold change /veh A4GNT (11735810_at) / RFU PRB3 (11715151_x_at) / Fold change /veh PRB3 (11715151_x_at) / RFU TUBB4B (11761932_at) / Fold change /veh TUBB4B (11761932_at) / RFU CAPN14 (11732068_a_at) / Fold change /veh CAPN14 (11732068_a_at) / RFU TMCC2 (11721928_a_at) / Fold change /veh TMCC2 (11721928_a_at) / RFU IRGQ (11745062_a_at) / Fold change /veh IRGQ (11745062_a_at) / RFU FAM174B (11720279_a_at) / Fold change /veh FAM174B (11720279_a_at) / RFU TMPRSS4 (11748680_a_at) / Fold change /veh TMPRSS4 (11748680_a_at) / RFU FAM212B (11763350_a_at) / Fold change /veh FAM212B (11763350_a_at) / RFU PLEKHG5 (11743358_a_at) / Fold change /veh PLEKHG5 (11743358_a_at) / RFU ZSCAN30 (11745921_a_at) / Fold change /veh ZSCAN30 (11745921_a_at) / RFU CMKLR1 (11741424_a_at) / Fold change /veh CMKLR1 (11741424_a_at) / RFU LOC101060620 /// MAPK8IP1 (11723275_at) / Fold change /veh LOC101060620 /// MAPK8IP1 (11723275_at) / RFU SPTSSB (11747773_x_at) / Fold change /veh SPTSSB (11747773_x_at) / RFU PRSS12 (11739890_at) / Fold change /veh PRSS12 (11739890_at) / RFU BIN1 (11741810_x_at) / Fold change /veh BIN1 (11741810_x_at) / RFU WNT11 (11732464_a_at) / Fold change /veh WNT11 (11732464_a_at) / RFU C10orf10 (11716521_a_at) / Fold change /veh C10orf10 (11716521_a_at) / RFU C5orf56 (11738089_at) / Fold change /veh C5orf56 (11738089_at) / RFU CYB561 (11721691_x_at) / Fold change /veh CYB561 (11721691_x_at) / RFU ANKRD19P (11752326_a_at) / Fold change /veh ANKRD19P (11752326_a_at) / RFU OR2T12 /// OR2T33 /// OR2T8 (11738714_s_at) / Fold change /veh OR2T12 /// OR2T33 /// OR2T8 (11738714_s_at) / RFU VCAN (11748164_a_at) / Fold change /veh VCAN (11748164_a_at) / RFU JSRP1 (11732532_at) / Fold change /veh JSRP1 (11732532_at) / RFU KRTAP10-11 (11738290_x_at) / Fold change /veh KRTAP10-11 (11738290_x_at) / RFU MYO3A (11730013_a_at) / Fold change /veh MYO3A (11730013_a_at) / RFU EBF3 (11725865_a_at) / Fold change /veh EBF3 (11725865_a_at) / RFU CAMK2N1 (11719241_x_at) / Fold change /veh CAMK2N1 (11719241_x_at) / RFU C5orf56 (11738088_a_at) / Fold change /veh C5orf56 (11738088_a_at) / RFU OLFML3 (11715873_a_at) / Fold change /veh OLFML3 (11715873_a_at) / RFU LOC100653217 /// NTM (11731650_a_at) / Fold change /veh LOC100653217 /// NTM (11731650_a_at) / RFU MAPK11 (11762145_a_at) / Fold change /veh MAPK11 (11762145_a_at) / RFU FIZ1 (11724087_x_at) / Fold change /veh FIZ1 (11724087_x_at) / RFU OASL (11726364_x_at) / Fold change /veh OASL (11726364_x_at) / RFU SOX15 (11748057_x_at) / Fold change /veh SOX15 (11748057_x_at) / RFU CD79A (11719716_a_at) / Fold change /veh CD79A (11719716_a_at) / RFU HIST1H1D (11736915_at) / Fold change /veh HIST1H1D (11736915_at) / RFU CASKIN2 (11723855_a_at) / Fold change /veh CASKIN2 (11723855_a_at) / RFU LOC730098 (11760151_x_at) / Fold change /veh LOC730098 (11760151_x_at) / RFU OR4N2 (11742367_at) / Fold change /veh OR4N2 (11742367_at) / RFU PRRT2 (11749266_a_at) / Fold change /veh PRRT2 (11749266_a_at) / RFU SNX32 (11753110_a_at) / Fold change /veh SNX32 (11753110_a_at) / RFU CDHR5 (11726645_a_at) / Fold change /veh CDHR5 (11726645_a_at) / RFU RCAN1 (11760418_a_at) / Fold change /veh RCAN1 (11760418_a_at) / RFU FAM167A (11723789_a_at) / Fold change /veh FAM167A (11723789_a_at) / RFU FAM26E (11764081_at) / Fold change /veh FAM26E (11764081_at) / RFU ISYNA1 (11749810_s_at) / Fold change /veh ISYNA1 (11749810_s_at) / RFU ACY1 (11761880_at) / Fold change /veh ACY1 (11761880_at) / RFU 11764098_at / Fold change /veh 11764098_at / RFU SAMD14 (11745864_x_at) / Fold change /veh SAMD14 (11745864_x_at) / RFU NPB (11741838_a_at) / Fold change /veh NPB (11741838_a_at) / RFU TMPRSS6 (11731388_a_at) / Fold change /veh TMPRSS6 (11731388_a_at) / RFU KRTAP10-2 (11738614_at) / Fold change /veh KRTAP10-2 (11738614_at) / RFU ARHGAP8 /// PRR5-ARHGAP8 (11727945_x_at) / Fold change /veh ARHGAP8 /// PRR5-ARHGAP8 (11727945_x_at) / RFU KRTAP5-7 /// NADSYN1 (11734609_at) / Fold change /veh KRTAP5-7 /// NADSYN1 (11734609_at) / RFU RASL12 (11751679_a_at) / Fold change /veh RASL12 (11751679_a_at) / RFU CDKN2B (11736163_a_at) / Fold change /veh CDKN2B (11736163_a_at) / RFU PRF1 (11729649_at) / Fold change /veh PRF1 (11729649_at) / RFU, ZNF638 /// ZNF638-IT1 / Fold change vs veh, ZNF638 /// ZNF638-IT1 / RFU, PANK3 / Fold change vs veh, PANK3 / RFU, SH3YL1 / Fold change vs veh, SH3YL1 / RFU, ZEB2 / Fold change vs veh, ZEB2 / RFU, NRIP1 / Fold change vs veh, NRIP1 / RFU, PTTG1IP / Fold change vs veh, PTTG1IP / RFU, CAPN2 / Fold change vs veh, CAPN2 / RFU, MED14 / Fold change vs veh, MED14 / RFU, SNORA58 / Fold change vs veh, SNORA58 / RFU, C1orf63 / Fold change vs veh, C1orf63 / RFU, LRRFIP1 / Fold change vs veh, LRRFIP1 / RFU, NDUFAF7 / Fold change vs veh, NDUFAF7 / RFU, SLC12A2 / Fold change vs veh, SLC12A2 / RFU, IBTK / Fold change vs veh, IBTK / RFU, ESF1 / Fold change vs veh, ESF1 / Fold change vs veh, TMEM50B / RFU, TAOK1 / Fold change vs veh, TAOK1 / RFU, ACBD3 / Fold change vs veh, ACBD3 / RFU, TMA16 / Fold change vs veh, TMA16 / RFU, RWDD3 / Fold change vs veh, RWDD3 / RFU, BCAT1 / Fold change vs veh, BCAT1 / RFU, EDEM3 / Fold change vs veh, EDEM3 / RFU, TMEM33 / Fold change vs veh, TMEM33 / RFU, WDR75 / Fold change vs veh, WDR75 / RFU, AHCTF1 / Fold change vs veh, AHCTF1 / RFU, TFRC / Fold change vs veh, TFRC / RFU, ZDHHC17 / Fold change vs veh, ZDHHC17 / RFU, NOM1 / Fold change vs veh, NOM1 / RFU, ARL8B / Fold change vs veh, ARL8B / RFU, ZBTB11 / Fold change vs veh, ZBTB11 / RFU, TAMM41 / Fold change vs veh, TAMM41 / RFU, KIAA1704 /// LOC100996395 / Fold change vs veh, KIAA1704 /// LOC100996395 / RFU, ING1 / Fold change vs veh, ING1 / RFU, TRMT61B / Fold change vs veh, TRMT61B / RFU, FUBP3 / Fold change vs veh, FUBP3 / RFU, TP53 / Fold change vs veh, TP53 / RFU, TNKS2 / Fold change vs veh, TNKS2 / RFU, ZFP14 / Fold change vs veh, ZFP14 / RFU, ACTR2 / Fold change vs veh, ACTR2 / RFU, PPP3R1 / Fold change vs veh, PPP3R1 / RFU, PIK3R1 / Fold change vs veh, PIK3R1 / RFU, HNRNPA1 / Fold change vs veh, HNRNPA1 / RFU, RNF170 / Fold change vs veh, RNF170 / RFU, ZNF28 / Fold change vs veh, ZNF28 / RFU, RNGTT / Fold change vs veh, RNGTT / RFU, OGT / Fold change vs veh, OGT / RFU, BRD1 / Fold change vs veh, BRD1 / RFU, MARS / Fold change vs veh, MARS / RFU, ZNF655 / Fold change vs veh, ZNF655 / RFU, FAHD1 / Fold change vs veh, FAHD1 / RFU, BDP1 / Fold change vs veh, BDP1 / RFU, LRRCC1 / Fold change vs veh, LRRCC1 / RFU, ARID1A / Fold change vs veh, ARID1A / RFU, ZNF146 / Fold change vs veh, ZNF146 / RFU, ZNF330 / Fold change vs veh, ZNF330 / RFU, GPN3 / Fold change vs veh, GPN3 / RFU, C9orf123 / Fold change vs veh, C9orf123 / RFU, N4BP2L2 / Fold change vs veh, N4BP2L2 / RFU, ARFIP1 / Fold change vs veh, ARFIP1 / RFU, FAM179B / Fold change vs veh, FAM179B / RFU, BCL10 / Fold change vs veh, BCL10 / RFU, UHRF1BP1L / Fold change vs veh, UHRF1BP1L / RFU, BET1 / Fold change vs veh, BET1 / RFU, CNOT2 / Fold change vs veh, CNOT2 / RFU, ZNF268 / Fold change vs veh, ZNF268 / Fold change vs veh, ZNF507 / RFU, DGCR2 / Fold change vs veh, DGCR2 / RFU, WDSUB1 / Fold change vs veh, WDSUB1 / Fold change vs veh, HSP90B1 /// MIR3652 / RFU, ADSS / Fold change vs veh, ADSS / RFU, GK / Fold change vs veh, GK / RFU, ZNF148 / Fold change vs veh, ZNF148 / RFU, TAF9 / Fold change vs veh, TAF9 / RFU, SLC1A5 / Fold change vs veh, SLC1A5 / RFU, SLMO2 / Fold change vs veh, SLMO2 / RFU, ABCC4 / Fold change vs veh, ABCC4 / RFU, LOC101060439 /// RAP1B / Fold change vs veh, LOC101060439 /// RAP1B / RFU, RFX7 / Fold change vs veh, RFX7 / RFU, GTPBP10 / Fold change vs veh, GTPBP10 / RFU, CNEP1R1 / Fold change vs veh, CNEP1R1 / RFU, BIVM-ERCC5 /// ERCC5 / Fold change vs veh, BIVM-ERCC5 /// ERCC5 / RFU, ILF3 / Fold change vs veh, ILF3 / RFU 11762660_at / Fold change /veh 11762660_at / RFU VCAN (11757783_s_at) / Fold change /veh VCAN (11757783_s_at) / RFU DDX43 (11728927_at) / Fold change /veh DDX43 (11728927_at) / RFU KRT8 (11758188_x_at) / Fold change /veh KRT8 (11758188_x_at) / RFU NKD1 (11759106_at) / Fold change /veh NKD1 (11759106_at) / RFU SRD5A1 (11742802_a_at) / Fold change /veh SRD5A1 (11742802_a_at) / RFU TPSAB1 /// TPSB2 (11721975_s_at) / Fold change /veh TPSAB1 /// TPSB2 (11721975_s_at) / RFU GSTM3 (11746129_a_at) / Fold change /veh GSTM3 (11746129_a_at) / RFU IL23R (11737362_x_at) / Fold change /veh IL23R (11737362_x_at) / RFU TMEM51 (11727254_a_at) / Fold change /veh TMEM51 (11727254_a_at) / RFU PIWIL2 (11732686_x_at) / Fold change /veh PIWIL2 (11732686_x_at) / RFU ORM1 (11744905_x_at) / Fold change /veh ORM1 (11744905_x_at) / RFU CCDC152 (11743942_at) / Fold change /veh CCDC152 (11743942_at) / RFU ECM1 (11717891_a_at) / Fold change /veh ECM1 (11717891_a_at) / RFU IL23R (11748794_a_at) / Fold change /veh IL23R (11748794_a_at) / RFU TNFAIP8L3 (11732012_x_at) / Fold change /veh TNFAIP8L3 (11732012_x_at) / RFU MBOAT4 (11741988_at) / Fold change /veh MBOAT4 (11741988_at) / RFU 11764193_at / Fold change /veh 11764193_at / RFU TMEM53 (11763286_at) / Fold change /veh TMEM53 (11763286_at) / RFU MAGEB2 (11727129_at) / Fold change /veh MAGEB2 (11727129_at) / RFU TMEM200A (11744735_a_at) / Fold change /veh TMEM200A (11744735_a_at) / RFU CCDC152 (11751479_a_at) / Fold change /veh CCDC152 (11751479_a_at) / RFU FAM211A (11726209_a_at) / Fold change /veh FAM211A (11726209_a_at) / RFU RGS16 (11746705_a_at) / Fold change /veh RGS16 (11746705_a_at) / RFU VCAN (11755009_s_at) / Fold change /veh VCAN (11755009_s_at) / RFU RHOB (11743442_s_at) / Fold change /veh RHOB (11743442_s_at) / RFU RGS16 (11720943_a_at) / Fold change /veh RGS16 (11720943_a_at) / RFU RGS16 (11720944_at) / Fold change /veh RGS16 (11720944_at) / RFU, VPS4B / Fold change vs veh, VPS4B / RFU, CREB1 / Fold change vs veh, CREB1 / RFU, DNAJC13 / Fold change vs veh, DNAJC13 / RFU, GNAQ / Fold change vs veh, GNAQ / RFU, CDK5R1 / Fold change vs veh, CDK5R1 / RFU, ZRANB3 / Fold change vs veh, ZRANB3 / RFU, CUL4A / Fold change vs veh, CUL4A / RFU, CCNY / Fold change vs veh, CCNY / RFU, UFL1 / Fold change vs veh, UFL1 / RFU, COG3 / Fold change vs veh, COG3 / RFU, DIAPH2 / Fold change vs veh, DIAPH2 / RFU, SKA2 / Fold change vs veh, SKA2 / RFU, AFF3 / Fold change vs veh, AFF3 / RFU, LMF1 / Fold change vs veh, LMF1 / RFU, IPO11 / Fold change vs veh, IPO11 / RFU, DFFB / Fold change vs veh, DFFB / RFU, FOXP1 / Fold change vs veh, FOXP1 / RFU, CARD8 / Fold change vs veh, CARD8 / RFU, STRN3 / Fold change vs veh, STRN3 / RFU, ADK / Fold change vs veh, ADK / RFU, RASSF2 / Fold change vs veh, RASSF2 / RFU, WIPF1 / Fold change vs veh, WIPF1 / RFU, LARP1B / Fold change vs veh, LARP1B / RFU, RASA1 / Fold change vs veh, RASA1 / RFU, RB1 / Fold change vs veh, RB1 / RFU, PPFIA1 / Fold change vs veh, PPFIA1 / RFU, MAT2A / Fold change vs veh, MAT2A / RFU, CCT5 / Fold change vs veh, CCT5 / RFU, WDR92 / Fold change vs veh, WDR92 / RFU, CUX1 / Fold change vs veh, CUX1 / RFU, TTC7A / Fold change vs veh, TTC7A / RFU, TMEM135 / Fold change vs veh, TMEM135 / RFU, DEPTOR / Fold change vs veh, DEPTOR / RFU, CPM / Fold change vs veh, CPM / RFU, DNAJB6 / Fold change vs veh, DNAJB6 / RFU, CACNA2D3 / Fold change vs veh, CACNA2D3 / RFU, DTX4 / Fold change vs veh, DTX4 / RFU, TFCP2 / Fold change vs veh, TFCP2 / RFU, GMCL1 /// GMCL1P1 / Fold change vs veh, GMCL1 /// GMCL1P1 / RFU, AEBP2 / Fold change vs veh, AEBP2 / RFU, SNHG1 /// SNORD22 /// SNORD25 /// SNORD26 /// SNORD27 /// SNORD28 /// SNORD29 /// SNORD31 / Fold change vs veh, SNHG1 /// SNORD22 /// SNORD25 /// SNORD26 /// SNORD27 /// SNORD28 /// SNORD29 /// SNORD31 / Fold change (Aza/veh), C12orf56 (ProbeSet 11735607_a_at) / Fold change (ACY-1035/veh), C12orf56 (ProbeSet 11735607_a_at) / Fold change (Aza/veh), FGFR1OP (ProbeSet 11751329_s_at) / Fold change (ACY-1035/veh), FGFR1OP (ProbeSet 11751329_s_at) / Fold change (Aza/veh), VPS36 (ProbeSet 11739960_a_at) / Fold change (ACY-1035/veh), VPS36 (ProbeSet 11739960_a_at) / RFU SYPL1 (11715823_x_at) / Fold change /veh SYPL1 (11715823_x_at) / RFU IGFBP7 (11715501_s_at) / Fold change /veh IGFBP7 (11715501_s_at) / RFU REEP3 (11722064_at) / Fold change /veh REEP3 (11722064_at) / RFU IGLL1 (11728026_x_at) / Fold change /veh IGLL1 (11728026_x_at): dose or concentration left out as unconfirmed.

SMILES strings stand for the structures.

On to `Nc1ncn([C@@H]2O[C@H](CO)[C@@H](O)[C@H]2O)c(=O)n1` [azacitidine], for which the “RFU, ZDHHC17” value was determined as 48.06 RFU.
